Consider 26 compounds from patent US7932270B2 (Cytokinetics, Inc., priority 2006, dated 2011).

This test has as its target T1, chicken gizzard smooth muscle myosin subfragment-1 chemically crosslinked to cardiac or skeletal actin (Gallus gallus, UniProt P10587).
T1 construct: chicken gizzard smooth muscle myosin subfragment-1; from tissue; host or cells: chicken gizzard
Nature of the test: Smooth muscle myosin ATPase dose response assay (pyruvate kinase/horseradish peroxidase/pyruvate oxidase-coupled, amplex red fluorescence). It counts as biochemical. To be noted: read-out: IC50 Arithmetic Mean. In outline:
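Readout is amplex red signal from coupled ATPase of actin-crosslinked gizzard myosin S1 (0.15 mM ATP, 12 mM K-PIPES, pH 7.00). IC50 is the half-maximal activity point of a four-parameter Hill fit.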

T1 sequence (P02607 2-151): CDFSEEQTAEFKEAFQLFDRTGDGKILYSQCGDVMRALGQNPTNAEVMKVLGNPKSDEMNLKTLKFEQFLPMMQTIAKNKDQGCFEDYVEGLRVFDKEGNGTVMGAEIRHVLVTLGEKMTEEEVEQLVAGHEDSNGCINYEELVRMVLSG
T1 sequence (P10587 84-789): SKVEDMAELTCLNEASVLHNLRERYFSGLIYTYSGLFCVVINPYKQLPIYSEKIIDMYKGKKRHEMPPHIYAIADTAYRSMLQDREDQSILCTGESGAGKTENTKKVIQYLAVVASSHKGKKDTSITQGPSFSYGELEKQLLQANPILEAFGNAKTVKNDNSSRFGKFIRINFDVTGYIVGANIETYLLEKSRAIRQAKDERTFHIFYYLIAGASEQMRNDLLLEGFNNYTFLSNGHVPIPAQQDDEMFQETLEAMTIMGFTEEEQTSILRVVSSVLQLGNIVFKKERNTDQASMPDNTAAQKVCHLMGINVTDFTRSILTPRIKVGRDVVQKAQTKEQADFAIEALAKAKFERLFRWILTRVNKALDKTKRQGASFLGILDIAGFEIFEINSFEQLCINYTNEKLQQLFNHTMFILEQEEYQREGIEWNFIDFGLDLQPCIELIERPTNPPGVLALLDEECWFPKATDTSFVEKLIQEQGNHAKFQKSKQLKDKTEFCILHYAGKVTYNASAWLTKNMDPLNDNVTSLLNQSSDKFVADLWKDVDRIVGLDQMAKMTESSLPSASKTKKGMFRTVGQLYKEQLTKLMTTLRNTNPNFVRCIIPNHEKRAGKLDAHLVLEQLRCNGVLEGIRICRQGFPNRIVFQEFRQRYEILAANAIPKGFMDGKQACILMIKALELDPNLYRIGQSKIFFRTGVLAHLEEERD

Consider `Cn1cc(-c2ccc(C(=O)NCC3CCCCC(=O)N3)c(NCCc3cccc(F)c3)n2)cn1` (centres unmarked) [(2-{[2-(3-fluorophenyl)ethyl]amino}-6-(1-methylpyrazol-4-yl)(3-pyridyl))-N-[(7-oxoazaperhydroepin-2-yl)methyl]carboxamide], for which the IC50 turned out to be 603 nM.
To `O=Cc1sccc1-c1ccc(C(=O)NCc2cccnc2)c(NCCc2cccc(F)c2)n1` [(2-{[2-(3-fluorophenyl)ethyl]amino}-6-(2-formyl(3-thienyl))(3-pyridyl))-N-(3-pyridylmethyl)carboxamide] belongs 1480 nM; to `O=C(NCc1cccnc1)c1ccc(-c2cccs2)nc1NCCc1cccc(F)c1` [(2-{[2-(3-fluorophenyl)ethyl]amino}-6-(2-thienyl)(3-pyridyl))-N-(3-pyridylmethyl)carboxamide], 137 nM; to `O=Cc1ccsc1-c1ccc(C(=O)NCc2cccnc2)c(NCCc2cccc(F)c2)n1` [(2-{[2-(3-fluorophenyl)ethyl]amino}-6-(3-formyl(2-thienyl))(3-pyridyl))-N-(3-pyridylmethyl)carboxamide], 783 nM.
As for `O=C(NCc1cccnc1)c1ccc(-c2ccsc2)nc1NCCc1cccc(F)c1` [(2-{[2-(3-fluorophenyl)ethyl]amino}-6-(3-thienyl)(3-pyridyl))-N-(3-pyridylmethyl)carboxamide], the IC50 is 48 nM.
To `Cc1csc(-c2ccc(C(=O)NCc3cccnc3)c(NCCc3cccc(F)c3)n2)c1` [(2-{[2-(3-fluorophenyl)ethyl]amino}-6-(4-methyl(2-thienyl))(3-pyridyl))-N-(3-pyridylmethyl)carboxamide] belongs 148 nM; to `O=Cc1ccc(-c2ccc(C(=O)NCc3cccnc3)c(NCCc3cccc(F)c3)n2)s1` [(2-{[2-(3-fluorophenyl)ethyl]amino}-6-(5-formyl(2-thienyl))(3-pyridyl))-N-(3-pyridylmethyl)carboxamide], 52 nM; to `O=Cc1cc(-c2ccc(C(=O)NCc3cccnc3)c(NCCc3cccc(F)c3)n2)cs1` [(2-{[2-(3-fluorophenyl)ethyl]amino}-6-(5-formyl(3-thienyl))(3-pyridyl))-N-(3-pyridylmethyl)carboxamide], 98 nM.
Under `O=C(NCc1cccnc1)c1ccc(-c2cnn(CCO)c2)nc1NCCc1cccc(F)c1` [(2-{[2-(3-fluorophenyl)ethyl]amino}-6-[1-(2-hydroxyethyl)pyrazol-4-yl](3-pyridyl))-N-(3-pyridylmethyl)carboxamide] stands 972 nM.
`O=C(NCc1cccnc1)c1ccc(-c2ccsc2CO)nc1NCCc1cccc(F)c1` [(2-{[2-(3-fluorophenyl)ethyl]amino}-6-[2-(hydroxymethyl)(3-thienyl)](3-pyridyl))-N-(3-pyridylmethyl)carboxamide]: the IC50 worked out at 1570 nM.
Under `O=C(NCc1cccnc1)c1ccc(-c2sccc2CO)nc1NCCc1cccc(F)c1` [(2-{[2-(3-fluorophenyl)ethyl]amino}-6-[3-(hydroxymethyl)(2-thienyl)](3-pyridyl))-N-(3-pyridylmethyl)carboxamide] stands 2240 nM; under `O=C(NCc1cccnc1)c1ccc(-c2cccc(CO)c2)nc1NCCc1cccc(F)c1` [(2-{[2-(3-fluorophenyl)ethyl]amino}-6-[3-(hydroxymethyl)phenyl](3-pyridyl))-N-(3-pyridylmethyl)carboxamide], 281 nM.
To `COCc1cccc(-c2ccc(C(=O)NCc3cccnc3)c(NCCc3cccc(F)c3)n2)c1` [(2-{[2-(3-fluorophenyl)ethyl]amino}-6-[3-(methoxymethyl)phenyl](3-pyridyl))-N-(3-pyridylmethyl)carboxamide] belongs 5720 nM.
To `CC(O)c1ccc(-c2ccc(C(=O)NCc3cccnc3)c(NCCc3cccc(F)c3)n2)s1` (centres unmarked) [(2-{[2-(3-fluorophenyl)ethyl]amino}-6-[5-(hydroxyethyl)(2-thienyl)](3-pyridyl))-N-(3-pyridylmethyl)carboxamide] belongs 415 nM.
For the compound `O=C(NCc1ccccn1)c1ccc(-c2ccc(CO)s2)nc1NCCc1cccc(F)c1` [(2-{[2-(3-fluorophenyl)ethyl]amino}-6-[5-(hydroxymethyl)(2-thienyl)](3-pyridyl))-N-(2-pyridylmethyl)carboxamide], the IC50 was 45 nM.
To `O=C(NCc1cccnc1)c1ccc(-c2ccc(CO)s2)nc1NCCc1cccc(F)c1` [(2-{[2-(3-fluorophenyl)ethyl]amino}-6-[5-(hydroxymethyl)(2-thienyl)](3-pyridyl))-N-(3-pyridylmethyl)carboxamide] belongs 41 nM.
To `O=C(NCc1cccnc1)c1ccc(-c2csc(CO)c2)nc1NCCc1cccc(F)c1` [(2-{[2-(3-fluorophenyl)ethyl]amino}-6-[5-(hydroxymethyl)(3-thienyl)](3-pyridyl))-N-(3-pyridylmethyl)carboxamide] belongs 73 nM.
Take `O=C(NCc1cccnc1)c1ccc(-c2cnoc2)nc1NCCc1cccc(F)c1` [(2-{[2-(3-fluorophenyl)ethyl]amino}-6-isoxazol-4-yl(3-pyridyl))-N-(3-pyridylmethyl)carboxamide]: the IC50 is 49800 nM.
Under `O=C(NCc1cccnc1)c1ccc(-c2ccccc2)nc1NCCc1cccc(F)c1` [(2-{[2-(3-fluorophenyl)ethyl]amino}-6-phenyl(3-pyridyl))-N-(3-pyridylmethyl)carboxamide] stands 63 nM; under `O=C(NCc1cccnc1)c1cc(C(=O)NCc2cccnc2)c(-c2ccccc2)nc1NCCc1cccc(F)c1` [(2-{[2-(3-fluorophenyl)ethyl]amino}-6-phenyl-5-[N-(3-pyridylmethyl)carbamoyl](3-pyridyl))-N-(3-pyridylmethyl)carboxamide], 56000 nM.
Under `O=C(NCc1cccnc1)c1ccc(-c2cc[nH]n2)nc1NCCc1cccc(F)c1` [(2-{[2-(3-fluorophenyl)ethyl]amino}-6-pyrazol-3-yl(3-pyridyl))-N-(3-pyridylmethyl)carboxamide] stands 124 nM; under `O=C(NCc1cc[nH]n1)c1ccc(-c2cc[nH]n2)nc1NCCc1cccc(F)c1` [(2-{[2-(3-fluorophenyl)ethyl]amino}-6-pyrazol-3-yl(3-pyridyl))-N-(pyrazol-3-ylmethyl)carboxamide], 92 nM.
On to `O=C(NCc1cccnc1)c1ccc(-c2cn[nH]c2)nc1NCCc1cccc(F)c1` [(2-{[2-(3-fluorophenyl)ethyl]amino}-6-pyrazol-4-yl(3-pyridyl))-N-(3-pyridylmethyl)carboxamide], for which the IC50 came to 44 nM.
Under `O=C(NCc1cc[nH]n1)c1ccc(-c2cn[nH]c2)nc1NCCc1cccc(F)c1` [(2-{[2-(3-fluorophenyl)ethyl]amino}-6-pyrazol-4-yl(3-pyridyl))-N-(pyrazol-3-ylmethyl)carboxamide] stands 34 nM; under `O=C(NCc1cccnc1NCCO)c1ccc(-c2cn[nH]c2)nc1NCCc1cccc(F)c1` [(2-{[2-(3-fluorophenyl)ethyl]amino}-6-pyrazol-4-yl(3-pyridyl))-N-({2-[(2-hydroxyethyl)amino](3-pyridyl)}methyl)carboxamide], 65 nM; under `O=C(NCc1cccc(NCCO)n1)c1ccc(-c2cn[nH]c2)nc1NCCc1cccc(F)c1` [(2-{[2-(3-fluorophenyl)ethyl]amino}-6-pyrazol-4-yl(3-pyridyl))-N-({6-[(2-hydroxyethyl)amino](2-pyridyl)}methyl)carboxamide], 39 nM.

For orientation: IC50 means the concentration needed to halve the response being measured.
